The values that follow come from US6844435B2, “Heterocyclic compounds useful as inhibitors of tyrosine kinases” (Boehringer Ingelheim Pharmaceuticals, Inc., priority 2000, dated 2005).

The structures appear in SMILES notation.

The term melting point denotes the temperature, or range, at which the solid turns liquid. As for `Cn1c(Nc2c(Cl)cccc2Cl)nc2ccc3nc(C4=CC5C=CC4N5C(=O)OCc4ccccc4)[nH]c(=O)c3c21` (centres unmarked), the melting point was > 275 °C (dec.).

Consider `Cn1c(Nc2c(Cl)cccc2Cl)nc2ccc3nc(C4=CC5C=CC4N5)[nH]c(=O)c3c21` (centres unmarked), for which the melting point was more than 300 °C.

With `C/C(=C\c1cc([N+](=O)[O-])cc([N+](=O)[O-])c1)c1nc2ccc3nc(Nc4c(Cl)cccc4Cl)n(C)c3c2c(=O)[nH]1`, the melting point is 315 to 317 °C (dec.).

Take `CCn1c(Nc2c(Cl)cccc2Cl)nc2ccc3nc[nH]c(=O)c3c21` [Example 5, 2-(2,6-Dichlorophenylamino)-1-ethyl-1,8-dihydro-9H-imidazo[4,5-f]quinazoline-9-one]: the melting point was more than 300 °C.

`Cn1c(Nc2c(Cl)cccc2Cl)nc2ccc3nc(-c4ccccc4)[nH]c(=O)c3c21` [Example 7, 2-(2,6-Dichlorophenylamino)-1-methyl-7-phenyl-1,8-dihydro-9H-imidazo[4,5-f]quinazoline-9-one] yielded a melting point of more than 300 °C.

Regarding `Cn1c(Nc2c(Cl)cccc2Cl)nc2ccc3nc(-c4ccoc4)[nH]c(=O)c3c21` [Example 8, 2-(2,6-Dichlorophenylamino)-1-methyl-7-furan-3-yl-1,8-dihydro-9H-imidazo[4,5-f]quinazoline-9-one], the melting point is more than 300 °C.

`Cn1c(Nc2c(Cl)cccc2Cl)nc2ccc3nc(-c4cccc([N+](=O)[O-])c4)[nH]c(=O)c3c21` [Example 18]: the melting point was more than 300 °C.

Consider `Cn1c(Nc2c(Cl)cccc2Cl)nc2ccc3nc(-c4cccc(N)c4)[nH]c(=O)c3c21` [Example 19], for which the melting point is 200 °C (dec.).

For `CCNC(=O)Nc1cccc(-c2nc3ccc4nc(Nc5c(Cl)cccc5Cl)n(C)c4c3c(=O)[nH]2)c1` [Example 20], the melting point was 251 °C (dec.).

Take `C=Cc1nc2ccc3nc(Nc4c(Cl)cccc4Cl)n(C)c3c2c(=O)[nH]1` [Example 21]: the melting point was 278 to 284 °C (dec.).

As for `Cn1c(Nc2c(Cl)cccc2Cl)nc2ccc3nc(-c4cccs4)[nH]c(=O)c3c21` [Example 22], the melting point is more than 300 °C.

Take `Cn1c(Nc2c(Cl)cccc2Cl)nc2ccc3nc(-c4scc(S(C)(=O)=O)c4Cl)[nH]c(=O)c3c21` [Example 23]: the melting point is 280 °C.

In turn, `Cn1c(Nc2c(Cl)cccc2Cl)nc2ccc3nc(-c4csc(-c5cccc([N+](=O)[O-])c5)n4)[nH]c(=O)c3c21` [Example 24] yielded a melting point of more than 300 °C.

For the compound `Cn1c(Nc2c(Cl)cccc2Cl)nc2ccc3nc(-c4ncc[nH]4)[nH]c(=O)c3c21` [Example 25], the melting point is more than 300 °C.

Turning to `Cn1c(Nc2c(Cl)cccc2Cl)nc2ccc3nc(-c4cnc(-c5ccccc5)o4)[nH]c(=O)c3c21` [Example 26], the melting point is more than 290 °C.

Compound `Cn1c(Nc2c(Cl)cccc2Cl)nc2ccc3nc(C(N)=O)[nH]c(=O)c3c21` [Example 27] had a melting point of more than 300 °C.

With `CC(C)=Cc1nc2ccc3nc(Nc4c(Cl)cccc4Cl)n(C)c3c2c(=O)[nH]1` [Example 28], the melting point was more than 300 °C.

`Cn1c(Nc2c(Cl)cccc2Cl)nc2ccc3nc(-c4ccccn4)[nH]c(=O)c3c21` [Example 29] gave a melting point of more than 300 °C.

With `Cn1c(Nc2c(Cl)cccc2Cl)nc2ccc3nc(-c4cccnc4)[nH]c(=O)c3c21` [Example 30], the melting point is more than 300 °C.

The compound `Cn1c(Nc2c(Cl)cccc2Cl)nc2ccc3nc(Nc4ccccc4)[nH]c(=O)c3c21` [Example 31] registered a melting point of 185 to 192 °C.

As for `Cn1c(Nc2c(Cl)cccc2Cl)nc2ccc3nc(-c4nc(-c5ccc(OC(F)(F)F)cc5)no4)[nH]c(=O)c3c21` [Example 32], the melting point is more than 300 °C.

Compound `C=C(C)c1nc2ccc3nc(Nc4c(Cl)cccc4Cl)n(C)c3c2c(=O)[nH]1` [Example 33] came in with a melting point of more than 300 °C.

Consider `Cn1c(Nc2c(Cl)cccc2Cl)nc2ccc3nc(Cc4ccccc4)[nH]c(=O)c3c21` [Example 34], for which the melting point was > 250 °C (dec.).

Turning to `Cn1c(Nc2c(Cl)cccc2Cl)nc2ccc3nc(C4=CCCC4)[nH]c(=O)c3c21` [Example 35], the melting point was 295 °C (dec.).

As to `Cn1c(Nc2c(Cl)cccc2Cl)nc2ccc3nc(-c4csc(-c5cccc(N)c5)n4)[nH]c(=O)c3c21` [Example 36], the melting point was 240 °C (dec.).

On to `CCOC(=O)c1nc2ccc3nc(Nc4c(Cl)cccc4Cl)n(C)c3c2c(=O)[nH]1` [Example 37], for which the melting point is 275 to 277 °C.

`Cc1ccccc1-c1nc2ccc3nc(Nc4c(Cl)cccc4Cl)n(C)c3c2c(=O)[nH]1` [Example 38] yielded a melting point of more than 300 °C.

`Cn1c(Nc2c(Cl)cccc2Cl)nc2ccc3nc(-c4cc5ccccc5o4)[nH]c(=O)c3c21` [Example 39] registered a melting point of more than 300 °C.

Consider `Cn1c(Nc2c(Cl)cccc2Cl)nc2ccc3nc(CC4=CCCC4)[nH]c(=O)c3c21` [Example 40], for which the melting point is 258 °C (dec.).

Compound `Cn1c(Nc2c(Cl)cccc2Cl)nc2ccc3nc(C(=O)NCCO)[nH]c(=O)c3c21` [Example 41] gave a melting point of 265 to 268 °C.

On to `Cn1c(Nc2c(Cl)cccc2Cl)nc2ccc3nc(C(=O)O)[nH]c(=O)c3c21` [Example 42], for which the melting point was more than 300 °C.

`Cn1c(Nc2c(Cl)cccc2Cl)nc2ccc3nc(-c4nc5ccccc5[nH]4)[nH]c(=O)c3c21` [Example 43]: the melting point was more than 300 °C.

Turning to `C/C=C(\C)c1nc2ccc3nc(Nc4c(Cl)cccc4Cl)n(C)c3c2c(=O)[nH]1` [Example 45], the melting point was 278 °C (dec.).

On to `Cc1ncc(-c2nc3ccc4nc(Nc5c(Cl)cccc5Cl)n(C)c4c3c(=O)[nH]2)o1` [Example 46], for which the melting point is more than 300 °C.

`Cn1c(Nc2c(Cl)cccc2Cl)nc2ccc3nc(C(=O)c4c[nH]c5ccccc45)[nH]c(=O)c3c21` [Example 47] showed a melting point of more than 300 °C.

Compound `Cn1c(Nc2c(Cl)cccc2Cl)nc2ccc3nc(C4=CC(N5CCNCC5)CC4)[nH]c(=O)c3c21` (centres unmarked) [Example 48] yielded a melting point of 173 to 174 °C.

For `CC(C)c1nc2ccc3nc(Nc4c(Cl)cccc4Cl)n(C)c3c2c(=O)[nH]1` [Example 49], the melting point is 279 °C (dec.).

`Cn1c(Nc2c(Cl)cccc2Cl)nc2ccc3nc(C4CCCC4)[nH]c(=O)c3c21` [Example 50] registered a melting point of 283 to 284 °C.

With `Cn1c(Nc2c(Cl)cccc2Cl)nc2ccc3nc(C(=O)N4CCCC4)[nH]c(=O)c3c21` [Example 52], the melting point was 295 °C (dec.).

Regarding `CCc1nc2ccc3nc(Nc4c(Cl)cccc4Cl)n(C)c3c2c(=O)[nH]1` [Example 53], the melting point was more than 300 °C.

The compound `CN1CCC=C(c2nc3ccc4nc(Nc5c(Cl)cccc5Cl)n(C)c4c3c(=O)[nH]2)C1` [Example 54] returned a melting point of 255 °C.

`Cn1c(Nc2c(Cl)cccc2Cl)nc2ccc3nc(-c4ccc(-c5ccccc5[N+](=O)[O-])o4)[nH]c(=O)c3c21` [Example 55] showed a melting point of 289 to 292 °C.

With `Cn1c(Nc2c(Cl)cccc2Cl)nc2ccc3nc(-c4ccc(Br)o4)[nH]c(=O)c3c21` [Example 57], the melting point is 280 to 283 °C.

For the compound `Cc1ccoc1-c1nc2ccc3nc(Nc4c(Cl)cccc4Cl)n(C)c3c2c(=O)[nH]1` [Example 58], the melting point is 304 to 310 °C (dec.).
